Data as given in patent US20230232837A1, “NOVEL FORMULATIONS FOR INCREASING THE GERMINATION RATE OF FUNGAL SPORES” (priority 2020, published 2023).

Columns and labels:
[1] = tested on: Trichoderma asperellum strain B35; assay: Germination rate after air-drying with protectants, strain B35; format: cell-based; conditions: after air-drying at room temperature overnight; material:spore 1:1, lecithin 1:10
Protocol: (§1) The spores of Trichoderma strains T1 and B35 were prepared by Solid State Fermentation (SSF) and harvested, then centrifuged to form a spore paste. T1 is used here as an abbreviation for Trichoderma atroviride strain T1 with a culture collection No. I123-7 (French collection), while B35 is used here as an abbreviation for Trichoderma asperellum strain B35, deposited in the German Culture collection under the No. DSM33245.
(§2) For the air-drying experiments (explained further below), in order to get a protectant-to-spore mass ratio of 1:1 (except for lecithin), 12 g of the spore paste was mixed with 3 g of the protectant in order to get a total of 15 g. The spore concentration in the paste is about 25%, which makes then 3 g of spore in contact with 3 g of protectant. The mixture of protectants and paste were mixed for 5 min and 3400 rpm using an Ultra-Turrax equipment (IKA T25). In case of the test for lecithin, 1.5 g of a 20% lecithin solution was added to 13.5 g of spore paste, then mixed according to the afore-mentioned procedure (5 min, 3400 rpm). After mixing, the mixture was poured into a tray and dried at room temperature overnight.
(§3) Germination rates were measured according to the following protocol: The sample with the spores is dispersed in sterile tap water to get a homogenous spore solution. Depending on the initial spore concentration, the sample may need to be diluted up to 1E+07 spores/mL. This dilution then is spread on agar plates (often, 100 μl of dilution spread on a Potato Dextrose Agar plate) with a sterile Drigalski spatula. Depending on the strain type, the plates are incubated at a certain temperature (for example 20° C. for Trichoderma used here) for some time (here 19-24 hours is used) to allow time for germination and forming hyphae. Subsequently, the spores on the plates are analyzed under the microscope in 8 to 10 randomly chosen areas. At least 200 germinated and non-germinated spores are counted. The viability (%) is calculated by 100 times the number of germinated spores to the total spores counted.
(§4) A test was conducted to compare lecithin against other known microbial stabilizers and protectant materials. These materials include different sugars, proteins, skim milk powder, and others. Initially, an air-drying technique in room temperature was used.
(§5) After the spores were air dried with different protectants at room temperature overnight, the germination rate and total dry matter content (DMC, which is a way of expressing total moisture content) of the samples were analyzed.

[2] = tested on: Trichoderma atroviride strain T1; assay: Germination rate after air-drying with protectants, strain T1; format: cell-based; conditions: after air-drying at room temperature overnight; material:spore 1:1, lecithin 1:10
Protocol: as §1, §2, §3, §4, §5

[3] = Dry matter content / residual moisture by heating balance; format: physicochemical; conditions: dry matter content after air-drying; for DMC (%) B35: strain B35; for DMC (%) T1: strain T1
Protocol: For all experiments conducted, dry matter content (as related to total moisture content) was measured by a heating balance apparatus (Sartorius MA 160).
as §5

## OC[C@@H](O)[C@H](O)[C@H](O)[C@@H](O)CO [Ducitol/Galactitol]
[1]
  Germination rate (%) B35: not soluble
[2]
  Germination rate (%) T1: not soluble

## OC[C@@H](O)[C@@H](O)[C@H](O)[C@H](O)CO [Mannitol]
[1]
  Germination rate (%) B35: 51.40%
[2]
  Germination rate (%) T1: 69.95%
[3]
  DMC (%) B35: 94.88%
  DMC (%) T1: 97.01%

## O[C@H]1[C@H](O)[C@@H](O)[C@H](O)[C@@H](O)[C@H]1O [Myo-Inositol]
[1]
  Germination rate (%) B35: 59.05%
[2]
  Germination rate (%) T1: 65.03%
[3]
  DMC (%) B35: 95.59%
  DMC (%) T1: 96.6%

## OC[C@@H](O)[C@@H](O)[C@H](O)[C@@H](O)CO [Sorbitol/Glucitol]
[1]
  Germination rate (%) B35: 13.00%
[3]
  DMC (%) B35: 93.99%

## OC[C@H]1O[C@@](CO)(O[C@H]2O[C@H](CO)[C@@H](O)[C@H](O)[C@H]2O)[C@@H](O)[C@@H]1O [Sucrose]
[1]
  Germination rate (%) B35: 36.45%
[3]
  DMC (%) B35: 91.59%

## OC[C@H]1O[C@H](O[C@H]2O[C@H](CO)[C@@H](O)[C@H](O)[C@H]2O)[C@H](O)[C@@H](O)[C@@H]1O [Trehalose]
[1]
  Germination rate (%) B35: 43.18%
[2]
  Germination rate (%) T1: 68.75%
[3]
  DMC (%) B35: 91.84%
  DMC (%) T1: 90.35%

## Chitosan
[1]
  Germination rate (%) B35: not soluble
[2]
  Germination rate (%) T1: not soluble

## Maltodextrin
[1]
  Germination rate (%) B35: 20.38%
[2]
  Germination rate (%) T1: 54.55%
[3]
  DMC (%) B35: 92.49%
  DMC (%) T1: 94.46%
